What was measured:
C6 = test: Cytotoxicity in rat C6 cells assessed as intracellular release of lactic dehydrogenase; format: functional
[1] = Dissociation constant, pKa in presence of fetal bovine serum; format: physicochemical; settings: cattle, solution containing fetal bovine serum; read-out: Apparent_pKa
[2] = Dissociation constant, pKa in deuterated water solution; format: physicochemical; settings: read-out: Apparent_pKa

Row | Compound | Activity (C6) | pKa [1] | pKa [2]
1 | O[C@@H]([C@H](O)[C@H](O)Cn1ccnc1)[C@H](O)Cn1ccnc1 | <10% | 6.63 | 7
2 | O[C@@H](Cn1ccnc1)[C@@H](O)Cn1ccnc1 | <10% | 6.67 | 6.56
3 | OC(Cn1ccnc1)Cn1ccnc1 |  |  | 6.45
